Measured values as given in patent US20260317320A1, “C5AR1 ANTAGONISTS AND USES THEREOF” (Vanqua Bio, Inc., priority 2022, published 2026).
Where two headings read alike, the source gives them in different places.

Key:
[1] = molecular target: T1, complement C5a receptor 1 (C5aR1) (Homo sapiens, UniProt P21730); assay: β-arrestin recruitment via C5aR1 activation in live CHO-K1 cells (PathHunter), agonist mode; format: cell-based
T1 construct: β-galactosidase fragment (PathHunter enzyme complementation); host or cells: CHO-K1 (PathHunter CHO-K1 C5aR1 β-arrestin cell line)
T1 sequence (P21730 1-350): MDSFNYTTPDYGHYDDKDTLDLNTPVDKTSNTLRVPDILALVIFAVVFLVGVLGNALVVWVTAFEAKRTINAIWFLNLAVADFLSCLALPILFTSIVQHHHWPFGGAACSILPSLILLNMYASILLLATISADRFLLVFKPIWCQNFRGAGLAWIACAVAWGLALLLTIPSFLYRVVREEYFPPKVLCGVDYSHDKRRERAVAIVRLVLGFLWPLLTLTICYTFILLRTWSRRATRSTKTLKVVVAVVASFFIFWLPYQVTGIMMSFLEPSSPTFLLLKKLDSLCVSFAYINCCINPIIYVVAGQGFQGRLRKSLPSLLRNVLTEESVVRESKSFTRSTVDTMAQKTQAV
Method in brief: (§1)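 β-arrestin recruitment to C5aR1 in CHO-K1 cells is detected by enzyme-fragment complementation. Antagonism is measured against recombinant hC5a at its EC90; agonism is measured with compound alone. Potencies are grouped into IC50 categories.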

[2] = molecular target: T1, complement C5a receptor 1 (C5aR1); assay: β-arrestin recruitment via C5aR1 activation in live CHO-K1 cells (PathHunter), antagonist mode; format: cell-based; conditions: antagonist mode; recombinant hC5a (EC90) as competing natural agonist; live CHO-K1 cells; read-out: [Antagonist] B-arrestin2 recruitment: Average IC50
Method in brief: as §1

Row | Structure (SMILES) | [Agonist] B-arrestin2 recruitment: Average EC50 (nM) ([1]; at 10 μM) | IC50 [2] | [Agonist] B-arrestin2 recruitment: Average EC50 (nM) [1]
1 | Cc1cccc(F)c1N1CCC(c2c(C)c3nccnc3n(Cc3ccccc3C(F)(F)F)c2=O)CC1 [compound 2, 7-(1-(2-Fluoro-6-methylphenyl)piperidin-4-yl)-8-methyl-5-(2-(trifluoromethyl)benzyl)pyrido[2,3-b]pyrazin-6(5H)-one] |  | 500 to 5000 nM | Non-Active
2 | COc1nccnc1Cn1c(=O)c(C2CCN(c3c(C)cccc3F)CC2)c(C)c2nccnc21 [compound 3, 7-(1-(2-Fluoro-6-methylphenyl)piperidin-4-yl)-5-((3-methoxypyrazin-2-yl)methyl)-8-methyl pyrido[2,3-b]pyrazin-6(5H)-one] |  | 500 to 5000 nM | Non-Active
3 | Cc1cccc(F)c1N1CCC(c2c(C)c3nccnc3n(Cc3nccnc3OCC(F)(F)F)c2=O)CC1 [compound 4, 7-(1-(2-Fluoro-6-methylphenyl)piperidin-4-yl)-8-methyl-5-((3-(2,2,2-trifluoroethoxy)pyrazin-2-yl)methyl)pyrido[2,3-b]pyrazin-6(5H)-one] |  | 500 to 5000 nM | Non-Active
4 | COc1nccnc1Cn1c(=O)c(C2CCN(c3c(C)cccc3F)CC2)cc2nccnc21 [compound 5, 7-(1-(2-Fluoro-6-methylphenyl)piperidin-4-yl)-5-((3-methoxypyrazin-2-yl)methyl)pyrido[2,3-b]pyrazin-6(5H)-one] |  | 500 to 5000 nM | Non-Active
5 | Cc1cccc(F)c1N1CCC(c2cc3nccnc3n(Cc3nccnc3OCC(F)(F)F)c2=O)CC1 [compound 6, 7-(1-(2-Fluoro-6-methylphenyl)piperidin-4-yl)-5-((3-(2,2,2-trifluoroethoxy)pyrazin-2-yl)methyl)pyrido[2,3-b]pyrazin-6(5H)-one] |  | < 500 nM | Non-Active
6 | Cc1c(C2CCN(c3ccccc3C(F)(F)F)CC2)c(=O)n(Cc2ccccc2F)c2nccnc12 [compound 7, 5-(2-Fluorobenzyl)-8-methyl-7-(1-(2-(trifluoromethyl)phenyl)piperidin-4-yl)pyrido[2,3-b]pyrazin-6(5H)-one] |  | < 500 nM | Non-Active
7 | Cc1nccnc1N1CCC(c2cc3nccnc3n(Cc3ccccc3C(F)(F)F)c2=O)CC1 [compound 8, 7-(1-(3-Methylpyrazin-2-yl)piperidin-4-yl)-5-(2-(trifluoromethyl)benzyl)pyrido[2,3-b]pyrazin-6(5H)-one] |  | 5000 to 100000 nM | Non-Active
8 | COc1nccnc1N1CCC(c2cc3nccnc3n(Cc3ccccc3C(F)(F)F)c2=O)CC1 [compound 9, 7-(1-(3-Methoxypyrazin-2-yl)piperidin-4-yl)-5-(2-(trifluoromethyl)benzyl)pyrido[2,3-b]pyrazin-6(5H)-one] |  | 5000 to 100000 nM | Non-Active
9 | O=c1c(C2CCN(c3ccccc3C(F)(F)F)CC2)cc2nccnc2n1Cc1ccccc1F [compound 10, 5-(2-fluorobenzyl)-7-(1-(2-(trifluoromethyl)phenyl)piperidin-4-yl)pyrido[2,3-b]pyrazin-6(5H)-one] |  | < 500 nM | Non-Active
10 | Cc1c(C2CCN(c3cccnc3C(F)(F)F)CC2)c(=O)n(Cc2ccccc2F)c2nccnc12 [compound 11, 5-(2-Fluorobenzyl)-8-methyl-7-(1-(2-(trifluoromethyl)pyridin-3-yl)piperidin-4-yl)pyrido[2,3-b]pyrazin-6(5H)-one] |  | > 100000 nM | Non-Active
11 | Cc1cccc(F)c1N1CCC(c2cc3nccnc3n(Cc3nccnc3C(F)(F)F)c2=O)CC1 [compound 12, 7-(1-(2-Fluoro-6-methylphenyl)piperidin-4-yl)-5-((3-(trifluoromethyl)pyrazin-2-yl)methyl)pyrido[2,3-b]pyrazin-6(5H)-one] |  | < 500 nM | Non-Active
12 | Cc1cccc(F)c1N1CCC(c2cc3nccnc3n(Cc3cccnc3C(F)(F)F)c2=O)CC1 [compound 13, 7-(1-(2-Fluoro-6-methylphenyl)piperidin-4-yl)-5-((2-(trifluoromethyl)pyridin-3-yl)methyl)pyrido[2,3-b]pyrazin-6(5H)-one] |  | < 500 nM | Non-Active
13 | Cc1cccc(F)c1N1CCC(c2cc3nccnc3n(Cc3ccc(C(F)(F)F)nc3)c2=O)CC1 [compound 14, 7-(1-(2-Fluoro-6-methylphenyl)piperidin-4-yl)-5-((6-(trifluoromethyl)pyridin-3-yl)methyl)pyrido[2,3-b]pyrazin-6(5H)-one] |  | > 100000 nM | Non-Active

Other lines, results leading:

Row | [Agonist] B-arrestin2 recruitment: Average EC50 (nM) ([1]; at 10 μM) | IC50 [2] | [Agonist] B-arrestin2 recruitment: Average EC50 (nM) [1] | Structure (SMILES)
14 | Non-Active at 10 μM | 500 to 5000 nM |  | Cc1cnc2cc([C@H]3CC[C@H](c4c(C)cccc4F)C3)c(=O)n(Cc3nccnc3C(F)(F)F)c2n1 [197B, 7-((1S,3S)-3-(2-Fluoro-6-methylphenyl)cyclopentyl)-3-methyl-5-((3-(trifluoromethyl)pyrazin-2-yl)methyl)pyrido[2,3-b]pyrazin-6(5H)-one]
15 | Non-Active at 10 μM | 5000 to 100000 nM |  | Cc1cnc2cc([C@@H]3CC[C@H](c4c(C)cccc4F)C3)c(=O)n(Cc3nccnc3C(F)(F)F)c2n1 [197C, 7-((1R,3S)-3-(2-Fluoro-6-methylphenyl)cyclopentyl)-3-methyl-5-((3-(trifluoromethyl)pyrazin-2-yl)methyl)pyrido[2,3-b]pyrazin-6(5H)-one]
16 |  | < 500 nM | Non-Active | Cc1cnc2cc([C@@H]3CC[C@@H](c4c(C)cccc4F)C3)c(=O)n(Cc3nccnc3C(F)(F)F)c2n1 [197D, 7-((1R,3R)-3-(2-Fluoro-6-methylphenyl)cyclopentyl)-3-methyl-5-((3-(trifluoromethyl)pyrazin-2-yl)methyl)pyrido[2,3-b]pyrazin-6(5H)-one]
17 | Non-Active at 10 μM | 500 to 5000 nM |  | Cc1cccc(F)c1[C@H]1CC[C@@H](c2cc3nccnc3n(Cc3ncccc3C(F)(F)F)c2=O)C1 [200C, 7-((1R,3S)-3-(2-Fluoro-6-methylphenyl)cyclopentyl)-5-((3-(trifluoromethyl)pyridin-2-yl)methyl)pyrido[2,3-b]pyrazin-6(5H)-one]
18 | Non-Active at 10 μM | < 500 nM |  | Cc1cccc(F)c1[C@@H]1CC[C@@H](c2cc3nccnc3n(Cc3ncccc3C(F)(F)F)c2=O)C1 [200D, 7-((1R,3R)-3-(2-Fluoro-6-methylphenyl)cyclopentyl)-5-((3-(trifluoromethyl)pyridin-2-yl)methyl)pyrido[2,3-b]pyrazin-6(5H)-one]
19 |  | < 500 nM | Non-Active | Cc1ccc2cc([C@H]3C[C@H](c4c(C)cccc4F)C3)c(=O)n(Cc3ncccc3C(F)(F)F)c2n1 [243A, 3-((1r,3r)-3-(2-Fluoro-6-methylphenyl)cyclobutyl)-7-methyl-1-((3-(trifluoromethyl)pyridin-2-yl)methyl)-1,8-naphthyridin-2(1H)-one]
20 |  | < 500 nM | Non-Active | Cc1ccc2cc([C@H]3C[C@@H](c4c(C)cccc4F)C3)c(=O)n(Cc3ncccc3C(F)(F)F)c2n1 [243B, 3-((1s,3s)-3-(2-Fluoro-6-methylphenyl)cyclobutyl)-7-methyl-1-((3-(trifluoromethyl)pyridin-2-yl)methyl)-1,8-naphthyridin-2(1H)-one]
